Patent US12485192B2, “Cellular targeted label delivery system” (CELLIS AG, priority 2016, dated 2025)

Experiments:
[1] = tested on: metastatic 4T1 cancer; conditions: mouse, in vivo, iv
Text: After labeling, cells should be centrifuged and supernatant should be removed. This step should be repeated until no radioactivity is detected in the supernatant.

[2] = tested on: CD45+ leukocyte cells (macrophages, monocytes, lymphocytes, granulocytes); experiment: Uptake of iron binding proteins by CD45+ leukocyte cells in culture; assay type: cell-based, mouse; conditions: incubation 1-4 hrs, 0.1-0.2 mg/ml protein solution, standard culture conditions; FIG. 5
Method: (§1) Obtained cells are incubated in ferritin solution for a time and at the concentration sufficient to ensure proper ratio of ferritin/cell for their full load and also to ensure proper contrast content to obtain proper imaging). The time and concentration may vary depending on the number of molecules encapsulated/adsorbed into the ferritin cage, status of cell activation, condition and number of their intended administration.
For example, to ensure proper load with ferritins, cells are incubated for 1-4 hrs in ferritin solution 0.2 mg/ml in standard culture conditions. The frame of ferritin concentration may vary at least between 0.01 and 4 mg/ml as well as incubation time (5 min-6 hrs or more). Adjusting time and concentration of ferritin load to cells, the influence of ferritin and treatment conditions on cell viability should be minded.
as §1, with “haemoglobin” for “ferritin”, “haemoglobin/cell” for “ferritin/cell”, “imaging.” for “imaging).”, “linked with” for “encapsulated/adsorbed into”, “haemoglobin molecule,” for “ferritin cage,”, “administration. […]” for “administration.”

Substance | PET signal [1] | uptake of iron binding protein by cells [2]
18F fluorodeoxyglucose [plain 18F-1-DG] | lower PET signal | –
transferrin: human holo-transferrin purified from serum of healthy donor | – | very easily uptake
haemoglobins: human haemoglobin prepared from fresh red cells | – | very easily uptake
